Laboratory results taken from patent US4983603A, “Tricyclic cholinergic receptor agonists” (Societe Anonyme: SANOFI, priority 1987, dated 1991).

Key:
[1] = target: T1, M1-type muscarinic cholinergic receptor (Rattus norvegicus, UniProt P08482); experiment: Test for affinity for the M1-type muscarinic cholinergic receptor (displacement of [3H]pirenzepine); type: binding; conditions: for r = (M2/M1), ratio of the IC50 values (selectivity): M2 IC50 (guinea-pig ileum) / M1 IC50 (rat hippocampus); for IC50: homogenate of rat hippocampus, [3H]PZ 1 nM, 2 h at 4° C., pH 7.40
T1 sequence (P08482 1-460): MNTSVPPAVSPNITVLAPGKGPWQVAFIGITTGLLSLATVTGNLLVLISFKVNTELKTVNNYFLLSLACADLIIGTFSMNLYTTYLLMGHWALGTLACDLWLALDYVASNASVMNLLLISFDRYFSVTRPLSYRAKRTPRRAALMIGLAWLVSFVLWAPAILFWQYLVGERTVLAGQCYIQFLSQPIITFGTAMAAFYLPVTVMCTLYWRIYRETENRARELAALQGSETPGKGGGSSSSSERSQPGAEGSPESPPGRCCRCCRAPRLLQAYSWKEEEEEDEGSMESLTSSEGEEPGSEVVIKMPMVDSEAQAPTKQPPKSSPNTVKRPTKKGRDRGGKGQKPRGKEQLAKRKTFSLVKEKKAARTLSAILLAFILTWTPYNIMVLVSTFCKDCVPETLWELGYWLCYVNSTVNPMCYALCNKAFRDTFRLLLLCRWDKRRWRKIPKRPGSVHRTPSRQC
Description: (A) Test for Affinity for the M1 -Type Muscarinic Cholinergic Receptor
The interaction of the molecules with M1 -type muscarinic receptors was studied by in vitro measurement, on a homogenate of rat hippocampus, of the displacement of tritiated pirenzepine ([^3 H]PZ) from its specific binding sites. Aliquots (10 μl) of a 5% (w/v) homogenate of rat hippocampus in an Na2 HPO4 buffer (50 mM, pH 7.40) are incubated for 2 h at 4° C. in the presence of [^3 H]PZ (76 Ci/nmol; final concentration: 1 nM) and increasing concentrations of products to be studied. The final volume is 2 ml. The reaction is stopped by centrifugation for 10 min at 50,000×g. After decantation and washing of the residues, the bound radioactivity is counted by liquid scintillation. The non-specific binding is determined in the presence of 10 μmol/l of atropine sulfate. The 50% inhibitory concentration (IC50) is determined graphically (Ref.: Watson J. D., Roeskoe W. R. and Yamamura H. I., Life Sci., 31, 2019-2029, 1982).

[2] = target: T2, M2-type muscarinic cholinergic receptor (Cavia porcellus, UniProt H0VRN8); experiment: Test for affinity for the M2-type muscarinic cholinergic receptor (displacement of [3H]N-methylscopolamine); type: binding; conditions: homogenate of smooth muscle of guinea-pig ileum, [3H]NMS 0.3 nM, 20 min at 30° C., pH 7.5
T2 construct: on a homogenate of smooth muscle of guinea-pig ileum; from tissue; host or cells: guinea-pig ileum smooth muscle homogenate
T2 sequence (H0VRN8 1-466): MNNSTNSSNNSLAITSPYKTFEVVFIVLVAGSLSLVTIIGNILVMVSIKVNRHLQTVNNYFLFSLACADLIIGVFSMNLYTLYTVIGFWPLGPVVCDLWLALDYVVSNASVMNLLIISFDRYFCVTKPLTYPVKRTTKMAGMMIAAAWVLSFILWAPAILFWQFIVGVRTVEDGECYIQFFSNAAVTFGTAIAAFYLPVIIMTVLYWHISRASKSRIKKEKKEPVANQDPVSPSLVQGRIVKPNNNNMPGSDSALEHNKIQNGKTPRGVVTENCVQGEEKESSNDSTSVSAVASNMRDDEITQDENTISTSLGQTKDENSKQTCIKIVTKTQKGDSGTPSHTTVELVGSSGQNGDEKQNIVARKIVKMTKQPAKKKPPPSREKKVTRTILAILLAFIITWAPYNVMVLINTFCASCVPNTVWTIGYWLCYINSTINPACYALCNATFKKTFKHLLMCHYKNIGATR
Excerpt: The M1 -type receptors are concentrated in certain areas of the brain, such as the hippocampus, the cerebral cortex and the striatum, and also in the sympathetic ganglia. These binding sites can be selectivity labeled with [^3 H] pirenzepine ([^3 H]PZ). The M2 -type receptors predominate in the heart and ileum and can be labeled with [^3 H] N-methylscopolamine ([^3 H]NMS). To determine the selectivity of the products of the invention towards the M1 and M2 sites, we studied their interaction in vitro with [^3 H]PZ and [^3 H]NMS bound with a high affinity to membranes of rat hippocampus and membranes of smooth muscle of guinea-pig ileum, respectively.
(B) Test for Affinity for the M2 -Type Muscarinic Cholinergic Receptor
The interaction with M2 -type muscarinic receptors was studied by in vitro measurement, on a homogenate of smooth muscle of guinea-pig ileum, of the displacement of tritiated N-methylscopolamine ([^3 H]NMS) from its specific binding sites. Aliquots (50 μl) of a 0.625% (w/v) homogenate of smooth muscle of guinea-pig ileum in MEPES buffer (20 mM) containing NaCl (100 mM) and MgCl2 (10 mM) (final pH: 7.5) are incubated for 20 min at 30° C. in the presence of [^3 H]NMS ([…]; final concentration: 0.3 nM) and increasing concentrations of products to be tested. The final volume is 1 ml. The reaction is stopped by centrifugation for 5 min at 15,000×g. The non-specific binding is determined in the presence of 10 μmol/l of atropine sulfate. (Ref.: Hammer R., Berrie C. P., Birdsall N. I. M., Burgen A. S. V. and Hulme E. C., Nature, 283, 90-92, 1980; Hulme E. C., Birdsall N. I. M., Burgen A. S. V. and Mettha P., Mol. Pharmacol., 14, 737-750, 1978).
Table 2 indicates the affinities of the products of the invention for M1 and M2 receptors. The results are expressed as 50% inhibitory concentrations (IC50), i.e. the concentration (in μM) which causes a 50% displacement of the tritiated ligand bound to the membrane receptors. The IC50 for displacement of ^3 H-pirenzepine represents the affinity for the M1 receptor; the IC50 for displacement of ^3 H-NMS represents the affinity for the M2 receptor.

[3] = tested on: M1 central muscarinic cholinergic receptors; experiment: Antagonism of rotational behavior induced by intrastriatal injection of pirenzepine in mice; type: in vivo, mice (Swiss, CD 1, female); conditions: i.p., 15 minutes before pirenzepine, * p<0.05, ** p<0.01 vs control animals
Description: Pirenzepine (PZ) is a specific antagonist of M1 central muscarinic cholinergic receptors. The intrastriatal injection of PZ into mice induces rotational behavior. The antagonism of this behavior by the products according to the invention was studied. The products according to the invention are injected intraperitoneally (i.p.) after solubilization in distilled water or suspension in a 5% solution of gum arabic. The control animals receive an injection of the pure solvent under the same conditions. The animals used are female mice (Swiss, CD 1, Charles River, France) with a body weight of between 25 and 30 grams. Pirenzepine is dissolved in a phosphate buffer; the pH of the solution is 6. The products to be studied or their solvents are injected intraperitoneally, in a volume of 0.4 ml per 20 g of body weight, 15 minutes before a direct injection of pirenzepine at a dose of […] into the right striatum of the mouse, according to the method described by P. WORMS et al. in Eur. J. Pharmacol., 1986, 121, 395-401. The number of contralateral rotations (rotations in the opposite direction to the side injected) was counted for three 2-minute periods after the injection of pirenzepine: minutes 2 to 4, 8 to 10 and 13 to 15. Each treatment includes 1 to 3 doses and 10 animals per dose. For each treatment, the total number of rotations and the percentage antagonism compared with the control group are calculated.

| Structure (SMILES) | r = (M2/M1), ratio of the IC50 values (selectivity) [1] | IC50 [1] [µM] | IC50 [2] [µM] | Pirenzepine antagonism (percentage antagonism compared with control group, rotations) ([3]; 3 mg/kg) [%] | Pirenzepine antagonism (percentage antagonism compared with control group, rotations) ([3]; 10 mg/kg) [%] | Pirenzepine antagonism (percentage antagonism compared with control group, rotations) ([3]; 30 mg/kg) [%] |
| --- | --- | --- | --- | --- | --- | --- |
| CCN(CC)CCCNc1cc2oc3ccccc3c2nn1 [SR 45041 A] | 100 | 0.1 | 10 | -72 | – | – |
| CCN(CC)CCNc1cc2c(nn1)-c1ccccc1SC2.Cl.Cl [SR 96056 A, 2-(2-Diethylaminoethylamino)-9,10-dihydro-9-thia-3,4-diazaphenanthrene dihydrochloride] | 24 | 0.15 | 3.6 | -14 | -55 | -79 |
| CCN(CC)CCNc1cc2oc3ccccc3c2nn1 [SR 45040 A] | 64 | 0.7 | 45 | -47 | – | – |
| Cl.Cl.c1ccc2c(c1)oc1cc(NCCN3CCOCC3)nnc12 [SR 44288 A, 2-(2-Morpholinoethylamino)-9-oxa-3,4-diazafluorene dihydrochloride] | > 33 | 3 | > 100 | -32 | -52 | -100 |
| CCN1CCCC1CNc1cc2oc3ccccc3c2nn1 (centres unmarked) [SR 45042 A] | 500 | 0.1 | 50 | -52 | – | – |
| Cl.Cl.c1ccc2c(c1)sc1cc(NCCN3CCOCC3)nnc12 [SR 44289 A, 2-(2-Morpholinoethylamino)-9-thia-3,4-diazafluorene dihydrochloride] | 28 | 3.5 | 100 | -42 | -85 | – |
| Cl.Cl.c1ccc2c(c1)OCc1cc(NCCN3CCOCC3)nnc1-2 [SR 96094 A, 2-(2-Morpholinoethylamino)-9,10-dihydro-9-oxa-3,4-diazaphenanthrene dihydrochloride] | > 27 | 3.6 | > 100 | -8 | -20 | -85 |
